Results: ChEMBL document CHEMBL4393686, “InCl3 mediated heteroarylation of indoles and their derivatization via CH activation strategy: Discovery of 2-(1H-indol-3-yl)-quinoxaline derivatives as a new class of PDE4B selective inhibitors for arthritis and/or multiple sclerosis” (Eur J Med Chem, 2019)

What was measured:
Conditions in all cases: in vivo
[1] = Toxicity in zebrafish embryo assessed as effect in liver formation at 3000 uM; parameters: species or system Danio rerio
[2] = Toxicity in zebrafish embryo assessed as effect in swim bladder formation at 3000 uM; parameters: species or system Danio rerio
[3] = Toxicity in zebrafish embryo assessed as effect in lower jaw formation at 3000 uM; parameters: species or system Danio rerio
[4] = Toxicity in zebrafish embryo assessed as effect in intestine formation at 3000 uM; format: tissue-based, Danio rerio
[5] = Toxicity in zebrafish embryo assessed as effect in heart formation at 3000 uM; format: tissue-based, Danio rerio
[6] = Toxicity in zebrafish embryo assessed as effect in upper jaw formation at 3000 uM; parameters: species or system Danio rerio
[7] = Toxicity in zebrafish embryo assessed as effect in brain formation at 3000 uM; format: tissue-based, Danio rerio
[8] = Toxicity in zebrafish embryo assessed as effect in fin formation at 3000 uM; parameters: species or system Danio rerio
[9] = Toxicity in zebrafish embryo assessed as effect in tail formation at 3000 uM; parameters: species or system Danio rerio
[10] = Toxicity in zebrafish embryo assessed as effect in notochord formation at 3000 uM; parameters: species or system Danio rerio
[11] = Toxicity in zebrafish embryo assessed as effect in somite formation at 3000 uM; parameters: species or system Danio rerio
[12] = Toxicity in zebrafish embryo assessed as change in body shape at 3000 uM; parameters: species or system Danio rerio

Measured: Activity

CCC1(c2ccccc2)C(=O)NC(=O)NC1=O [PHENOBARBITAL]
Toxic: all assays above
